In patent publication US11149037B2, “Pyrazole MAGL inhibitors” (H. Lundbeck A/S, priority 2017, dated 2021):

Assays:
Assay type in all cases: biochemical
MAGL [1] = target: MAGL (Homo sapiens (Human), UniProt Q99685); assay: In vitro competitive activity-based protein profiling, human proteomes (prefrontal cortex or PC3 cell membrane fractions); conditions: human proteome; for inhibition at 1 µM: read-out: MAGL % inh. 1 μM (human); for inhibition at 10 µM: read-out: MAGL % inh. (human) @ 10 μM
In short: (§1)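 Activity of MAGL and FAAH was quantified from fluorescent gel band intensities. Beforehand, inhibitors at several concentrations competed against subsequent probe labelling (FP-Rh, JW912 or HT-01) in species-matched proteomes, each step 30 min at 37° C.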

FAAH [2] = target: FAAH (Homo sapiens (Human), UniProt O00519); assay: as above; conditions: human proteome; for inhibition at 1 µM: read-out: FAAH % inh. 1 μM (human)
In short: as §1

FAAH [3] = target: FAAH (Mus musculus (Mouse), UniProt O08914); assay: In vitro competitive activity-based protein profiling, mouse proteomes (brain membrane fraction or cell lysates); conditions: mouse proteome, read-out: FAAH % inh. 1 μM (mouse)
In short: as §1

MAGL [4] = target: MAGL (Mus musculus (Mouse), UniProt O35678); assay: as above; conditions: mouse proteome, read-out: MAGL % inh. 1 μM (mouse)
In short: as §1

Chain of FAAH (Mus musculus (Mouse), UniProt O08914) (O08914 whole entry): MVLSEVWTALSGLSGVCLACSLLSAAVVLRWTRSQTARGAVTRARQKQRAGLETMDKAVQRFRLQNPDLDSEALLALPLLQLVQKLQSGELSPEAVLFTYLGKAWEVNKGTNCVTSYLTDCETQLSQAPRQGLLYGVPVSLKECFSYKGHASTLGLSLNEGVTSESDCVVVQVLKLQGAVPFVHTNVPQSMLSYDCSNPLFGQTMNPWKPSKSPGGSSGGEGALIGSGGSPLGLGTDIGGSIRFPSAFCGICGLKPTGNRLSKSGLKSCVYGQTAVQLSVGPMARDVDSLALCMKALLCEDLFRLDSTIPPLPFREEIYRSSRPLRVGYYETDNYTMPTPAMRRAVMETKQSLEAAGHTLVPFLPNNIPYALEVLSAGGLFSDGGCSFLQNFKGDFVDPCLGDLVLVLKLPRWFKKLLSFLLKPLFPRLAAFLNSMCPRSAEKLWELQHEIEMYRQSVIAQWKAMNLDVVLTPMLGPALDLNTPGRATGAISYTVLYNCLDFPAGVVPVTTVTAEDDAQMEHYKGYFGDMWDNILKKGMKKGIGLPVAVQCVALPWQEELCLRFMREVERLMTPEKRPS
Chain of MAGL (Homo sapiens (Human), UniProt Q99685) (Q99685 whole entry): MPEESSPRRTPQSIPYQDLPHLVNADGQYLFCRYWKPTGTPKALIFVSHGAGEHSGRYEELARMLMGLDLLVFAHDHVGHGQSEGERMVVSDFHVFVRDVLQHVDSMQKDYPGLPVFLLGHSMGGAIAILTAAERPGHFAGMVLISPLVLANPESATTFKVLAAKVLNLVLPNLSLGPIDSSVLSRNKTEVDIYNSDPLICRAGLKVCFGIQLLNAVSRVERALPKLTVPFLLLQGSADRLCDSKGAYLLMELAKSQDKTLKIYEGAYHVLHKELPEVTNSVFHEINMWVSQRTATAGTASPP
Chain of MAGL (Mus musculus (Mouse), UniProt O35678) (O35678 whole entry): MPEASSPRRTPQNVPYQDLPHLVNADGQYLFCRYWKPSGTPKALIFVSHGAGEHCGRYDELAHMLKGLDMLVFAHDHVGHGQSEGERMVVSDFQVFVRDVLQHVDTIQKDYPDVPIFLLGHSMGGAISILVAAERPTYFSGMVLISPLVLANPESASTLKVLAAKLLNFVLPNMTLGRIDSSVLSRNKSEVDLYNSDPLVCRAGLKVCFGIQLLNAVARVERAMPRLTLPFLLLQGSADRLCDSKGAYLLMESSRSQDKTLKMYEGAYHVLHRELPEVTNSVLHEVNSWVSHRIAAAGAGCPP
Chain of FAAH (Homo sapiens (Human), UniProt O00519) (O00519 whole entry): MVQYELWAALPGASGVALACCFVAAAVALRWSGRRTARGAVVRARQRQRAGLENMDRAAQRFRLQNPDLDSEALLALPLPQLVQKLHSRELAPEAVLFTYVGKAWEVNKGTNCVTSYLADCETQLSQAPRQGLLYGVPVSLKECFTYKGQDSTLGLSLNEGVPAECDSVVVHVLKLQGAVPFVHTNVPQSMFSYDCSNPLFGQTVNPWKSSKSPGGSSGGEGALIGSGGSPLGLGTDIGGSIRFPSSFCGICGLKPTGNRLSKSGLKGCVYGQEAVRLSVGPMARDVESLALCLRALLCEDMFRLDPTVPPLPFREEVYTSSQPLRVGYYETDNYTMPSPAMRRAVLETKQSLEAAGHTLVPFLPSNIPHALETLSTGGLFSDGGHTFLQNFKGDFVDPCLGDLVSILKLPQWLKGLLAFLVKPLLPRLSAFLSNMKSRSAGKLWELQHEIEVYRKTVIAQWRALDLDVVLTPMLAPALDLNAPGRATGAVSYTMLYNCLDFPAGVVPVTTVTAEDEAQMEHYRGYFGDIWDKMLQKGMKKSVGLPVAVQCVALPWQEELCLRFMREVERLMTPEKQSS

| Compound | inhibition at 1 µM (MAGL [1]) | inhibition at 1 µM (FAAH [2]) | inhibition at 1 µM (FAAH [3]) | inhibition at 1 µM (MAGL [4]) | inhibition at 10 µM (MAGL [1]) | IC50 (MAGL [1]) | IC50 (FAAH [2]) |
| --- | --- | --- | --- | --- | --- | --- | --- |
| CS(=O)(=O)Nc1ccn(C(=O)N2CCC(Oc3ccc(C(F)(F)F)c(-c4nnco4)c3)CC2)n1 [Example 5, N-(1-(4-(3-(1,3,4-Oxadiazol-2-yl)-4-(trifluoromethyl)phenoxy)piperidine-1-carbonyl)-1H-pyrazol-3-yl)methanesulfonamide] | > 75% | 0 to 25% | 0 to 25% | > 75% |  |  |  |
| CS(=O)(=O)Nc1ccn(C(=O)N2CCN(Cc3ccc(Cl)c(N4CC5(CCOCC5)C4)c3)CC2)n1 [Example 8, N-(1-(4-(4-chloro-3-(7-oxa-2-azaspiro[3.5]nonan-2-yl)benzyl)piperazine-1-carbonyl)-1H-pyrazol-3-yl)methanesulfonamide] | > 75% | 0 to 25% | 0 to 25% | > 75% |  |  |  |
| CC(=O)Nc1ccn(C(=O)N2CC3CN(Cc4cc(N5CCOCC5)cc(C(F)(F)F)c4)CC3C2)n1 (stereo not shown) [Example 166, N-(1-(5-(3-Morpholino-5-(trifluoromethyl)benzyl)octahydropyrrolo[3,4-c]pyrrole-2-carbonyl)-1H-pyrazol-3-yl)acetamide] | > 75% | 0 to 25% | > 75% | > 75% |  |  |  |
| CS(=O)(=O)Nc1ccn(C(=O)N2C[C@H]3C[C@H](OCc4cccc(C(F)(F)F)c4)C[C@H]3C2)n1 [Example 28, N-(1-((3aR,5s,6aS)-5-((3-(trifluoromethyl)benzyl)oxy)octahydrocyclopenta[c]pyrrole-2-carbonyl)-1H-pyrazol-3-yl)methanesulfonamide] | > 75% | > 75% | > 75% | > 75% |  |  |  |
| CS(=O)(=O)Nc1ccn(C(=O)N2CCC3(CCN(Cc4ccccc4Cl)C3)CC2)n1 [Example 162, N-(1-(2-(2-Chlorobenzyl)-2,8-diazaspiro[4.5]decane-8-carbonyl)-1H-pyrazol-3-yl)methanesulfonamide] | > 75% | 0 to 25% | 0 to 25% | 0 to 25% |  |  |  |
| CS(=O)(=O)Nc1ccn(C(=O)N2CCC3(CCN(Cc4cccc(Cl)c4)C3)CC2)n1 [Example 163, N-(1-(2-(3-Chlorobenzyl)-2,8-diazaspiro[4.5]decane-8-carbonyl)-1H-pyrazol-3-yl)methanesulfonamide] | > 75% | 0 to 25% | 0 to 25% | 0 to 25% |  |  |  |
| CC(=O)Nc1ccn(C(=O)N2CC3CN(Cc4cccc(Oc5ccccc5Cl)c4)CC3C2)n1 (stereo not shown) [Example 18, N-(1-(5-(3-(2-chlorophenoxy)benzyl)octahydropyrrolo[3,4-c]pyrrole-2-carbonyl)-1H-pyrazol-3-yl)acetamide] | > 75% | > 75% | > 75% | > 75% |  | < 0.1 µM | 0.1 to 1 µM |
| CC(=O)Nc1ccn(C(=O)N2CCC3(CCCN3Cc3ccc(Cl)cc3OCCCC(=O)O)CC2)n1 [Example 105, 4-(2-((8-(3-Acetamido-1H-pyrazole-1-carbonyl)-1,8-diazaspiro[4.5]decan-1-yl)methyl)-5-chlorophenoxy)butanoic acid] | > 75% | 0 to 25% | 0 to 25% | > 75% |  |  |  |
| CC(=O)Nc1ccn(C(=O)N2CCN(Cc3cccc(OC(F)(F)F)c3)CC2)n1 [Example 128, N-(1-(4-(3-(Trifluoromethoxy)benzyl)piperazine-1-carbonyl)-1H-pyrazol-3-yl)acetamide] | > 75% | 0 to 25% | 0 to 25% | > 75% |  |  |  |
| CS(=O)(=O)Nc1ccn(C(=O)N2CC3CN(Cc4ccc(Oc5ccc(Cl)cc5)cc4)CC3C2)n1 (stereo not shown) [Example 40, N-(1-(5-(4-(4-Chlorophenoxy)benzyl)octahydropyrrolo[3,4-c]pyrrole-2-carbonyl)-1H-pyrazol-3-yl)methanesulfonamide] | 25 to 50% | 50 to 75% | > 75% | 25 to 50% |  |  |  |
| CC(=O)Nc1ccn(C(=O)N2CCC3(CCCN3C(=O)c3ccc(C#N)c(C)c3)CC2)n1 [Example 85, N-(1-(1-(4-Cyano-3-methylbenzoyl)-1,8-diazaspiro[4.5]decane-8-carbonyl)-1H-pyrazol-3-yl)acetamide] | > 75% | 0 to 25% | 0 to 25% | > 75% |  |  |  |
| CS(=O)(=O)Nc1ccn(C(=O)N2CCC(Oc3ccc(C(F)(F)F)cc3N3C4CCC3COC4)CC2)n1 [Example 92, N-(1-(4-(2-(3-Oxa-8-azabicyclo[3.2.1]octan-8-yl)-4-(trifluoromethyl)phenoxy)piperidine-1-carbonyl)-1H-pyrazol-3-yl)methanesulfonamide] | > 75% | 0 to 25% | 0 to 25% | > 75% |  |  |  |

Continued, values first:

| inhibition at 1 µM (MAGL [1]) | inhibition at 1 µM (FAAH [2]) | inhibition at 1 µM (FAAH [3]) | inhibition at 1 µM (MAGL [4]) | inhibition at 10 µM (MAGL [1]) | IC50 (MAGL [1]) | IC50 (FAAH [2]) | Compound |
| --- | --- | --- | --- | --- | --- | --- | --- |
| > 75% | 0 to 25% | 0 to 25% | > 75% |  |  |  | CS(=O)(=O)Nc1ccn(C(=O)N2CC3CN(Cc4ccc(C(F)(F)F)cc4NCCCC(=O)O)CC3C2)n1 (stereo not shown) [Example 78, 4-((2-((5-(3-(Methylsulfonamido)-1H-pyrazole-1-carbonyl)hexahydropyrrolo[3,4-c]pyrrol-2(1H)-yl)methyl)-5-(trifluoromethyl)phenyl)amino)butanoic acid] |
| > 75% | 0 to 25% | 0 to 25% | > 75% |  |  |  | CS(=O)(=O)Nc1ccn(C(=O)N2CCN(Cc3ccc(Cl)c(OC4CCCC4)c3)CC2)n1 [Example 111, N-(1-(4-(4-Chloro-3-(cyclopentyloxy)benzyl)piperazine-1-carbonyl)-1H-pyrazol-3-yl)methanesulfonamide] |
| > 75% | 0 to 25% | 0 to 25% | > 75% |  |  |  | CC1CN(C(=O)n2ccc(NS(C)(=O)=O)n2)CCN1Cc1ccc(C(F)(F)F)cc1N1CCCC1 (stereo not shown) [Example 88, N-(1-(3-Methyl-4-(2-(pyrrolidin-1-yl)-4-(trifluoromethyl)benzyl)piperazine-1-carbonyl)-1H-pyrazol-3-yl)methanesulfonamide] |
| 25 to 50% | 0 to 25% | 0 to 25% | 25 to 50% |  |  |  | CN(Cc1ccc(C(F)(F)F)cc1N1CCC(C(=O)O)C1)C1(C)CCN(C(=O)n2ccc(NS(C)(=O)=O)n2)CC1 (stereo not shown) [Example 97, 1-(2-((Methyl(4-methyl-1-(3-(methylsulfonamido)-1H-pyrazole-1-carbonyl)piperidin-4-yl)amino)methyl)-5-(trifluoromethyl)phenyl)pyrrolidine-3-carboxylic acid] |
|  | 0 to 25% | 0 to 25% | 0 to 25% | > 75% |  |  | CS(=O)(=O)Nc1ccn(C(=O)N2CCC3(CCCN3Cc3cc4ccc(C(F)(F)F)cc4s3)CC2)n1 [Example 53, N-(1-(1-((6-(Trifluoromethyl)benzo[b]thiophen-2-yl)methyl)-1,8-diazaspiro[4.5]decane-8-carbonyl)-1H-pyrazol-3-yl)methanesulfonamide] |
| > 75% | 0 to 25% | 50 to 75% | 25 to 50% |  |  |  | CS(=O)(=O)Nc1ccn(C(=O)N2CCC3(CCN(Cc4ccc(N5CCCC5)c(C(F)(F)F)c4)C3)CC2)n1 [Example 72, N-(1-(2-(4-(Pyrrolidin-1-yl)-3-(trifluoromethyl)benzyl)-2,8-diazaspiro[4.5]decane-8-carbonyl)-1H-pyrazol-3-yl)methanesulfonamide] |
| > 75% | 0 to 25% | 0 to 25% | 50 to 75% |  |  |  | CS(=O)(=O)Nc1ccn(C(=O)N2CCN(Cc3cccnc3N3CCCC3)CC2)n1 [Example 81, N-(1-(4-((2-(Pyrrolidin-1-yl)pyridin-3-yl)methyl)piperazine-1-carbonyl)-1H-pyrazol-3-yl)methanesulfonamide] |
|  | 0 to 25% | 0 to 25% | 0 to 25% | 25 to 50% |  |  | CS(=O)(=O)Nc1ccn(C(=O)N2CCC3(CCN(Cc4cc(Cl)ccc4C(F)(F)F)C3)CC2)n1 [Example 46, N-(1-(2-(5-Chloro-2-(trifluoromethyl)benzyl)-2,8-diazaspiro[4.5]decane-8-carbonyl)-1H-pyrazol-3-yl)methanesulfonamide] |
| > 75% | 0 to 25% | 0 to 25% | > 75% |  |  |  | CS(=O)(=O)Nc1ccn(C(=O)N2CCC(N(Cc3ccc(C(F)(F)F)cc3N3CCCC3)C3CC3)CC2)n1 [Example 35, N-(1-(4-(cyclopropyl(2-(pyrrolidin-1-yl)-4-(trifluoromethyl)benzyl)amino)piperidine-1-carbonyl)-1H-pyrazol-3-yl)methanesulfonamide] |
|  | 0 to 25% | 0 to 25% | 0 to 25% | 50 to 75% |  |  | CC1(N(CC(=O)O)Cc2ccc(C(F)(F)F)cc2N2CCCC2)CCN(C(=O)n2ccc(NS(C)(=O)=O)n2)CC1 [Example 29, N-(4-methyl-1-(3-(methylsulfonamido)-1H-pyrazole-1-carbonyl)piperidin-4-yl)-N-(2-(pyrrolidin-1-yl)-4-(trifluoromethyl)benzyl)glycine] |
| 25 to 50% | 0 to 25% | 0 to 25% | 25 to 50% |  |  |  | CS(=O)(=O)Nc1ccn(C(=O)N2CCN(Cc3ncccc3N3CCCC3)CC2)n1 [Example 86, N-(1-(4-((3-(Pyrrolidin-1-yl)pyridin-2-yl)methyl)piperazine-1-carbonyl)-1H-pyrazol-3-yl)methanesulfonamide] |
